The structures appear in SMILES notation.

The text below walks through data of ChEMBL document CHEMBL1157860, “CoMFA and CoMSIA studies on HIV-1 attachment inhibitors” (Eur J Med Chem, 2010).

The assay can be described thus: Inhibition of HIV1 gp120 binding to CD4 in human HeLa cells by cell fusion assay. In kind it is cell-based, Human immunodeficiency virus 1.

Turning to `C=CCn1cc(C(=O)C(=O)N2CCN(C(=O)c3ccccc3)CC2)c2ccccc21`, a half-maximal effect (EC50) was put at 6760 nM and the pEC50 stood at 5.17.
With `O=C(C(=O)N1CCN(C(=O)c2ccccc2)CC1)c1c[nH]c2cccc(F)c12`, it took 2.59 nM to reach a half-maximal effect (EC50) and the pEC50 is 8.59.
In the case of `O=C(C(=O)N1CCN(C(=O)c2ccccc2)CC1)c1c[nH]c2ccccc12`, a half-maximal effect (EC50) was put at 153 nM and the pEC50 is given as 6.82.
`CCOc1cccc2c(C(=O)C(=O)N3CCN(C(=O)c4ccccc4)CC3)c[nH]c12` gave an EC50 of 0.5 nM and a pEC50 of 9.3.
Molecule `N#Cc1ccc2[nH]cc(C(=O)C(=O)N3CCN(C(=O)c4ccccc4)CC3)c2c1` gave an EC50 of 121000 nM and a pEC50 of 3.92.
Consider `COc1ccc(Cl)c2[nH]cc(C(=O)C(=O)N3CCN(C(=O)c4ccccc4)CC3)c12`, for which a half-maximal effect (EC50) was put at 0.07 nM and the pEC50 is on record as 10.15.
For `O=C(C(=O)N1CCN(C(=O)c2ccccc2)CC1)c1c[nH]c2cccc(Br)c12`, in that order: 4.5 nM and 8.35.
For `O=C(C(=O)N1CCN(C(=O)c2ccccc2)CC1)c1c[nH]c2cccc([N+](=O)[O-])c12`, in that order: 150 nM and 6.82.
In turn, `CC(=O)Oc1ccc2[nH]cc(C(=O)C(=O)N3CCN(C(=O)c4ccccc4)CC3)c2c1` showed an EC50 of 952 nM and a pEC50 of 6.02.
The molecule `O=C(C(=O)N1CCN(C(=O)c2ccccc2)CC1)c1c[nH]c2cc(Cl)ccc12` displayed an EC50 of 208 nM and a negative logarithm of the EC50 (pEC50) of 6.68.
For `COc1ccc2c(C(=O)C(=O)N3CCN(C(=O)c4ccccc4)CC3)c[nH]c2c1`, in that order: 329 nM and 6.48.
For `CC(=O)Oc1cccc2[nH]cc(C(=O)C(=O)N3CCN(C(=O)c4ccccc4)CC3)c12`, in that order: 24900 nM and 4.6.
As for `O=C(C(=O)N1CCN(C(=O)c2ccccc2)CC1)c1c[nH]c2c(F)c(F)c(F)c(F)c12`, the EC50 came out at 1.7 nM and the pEC50 is recorded as 8.77.
On to `CCn1cc(C(=O)C(=O)N2CCN(C(=O)c3ccccc3)CC2)c2ccccc21`, for which a half-maximal response (EC50) required 1450 nM and the pEC50 was 5.84.
In turn, `O=C(C(=O)N1CCN(C(=O)c2ccccc2)CC1)c1cn(Cc2ccccc2)c2ccccc12` yielded an EC50 of 13800 nM and a pEC50 of 4.86.
For `CCCCn1cc(C(=O)C(=O)N2CCN(C(=O)c3ccccc3)CC2)c2ccccc21`, in that order: 2650 nM and 5.58.
For `COc1ccc2[nH]cc(C(=O)C(=O)N3CCN(C(=O)c4ccccc4)CC3)c2c1`, in that order: 21100 nM and 4.68.
In turn, `O=C(C(=O)N1CCN(C(=O)c2ccccc2)CC1)c1c[nH]c2ccc([N+](=O)[O-])cc12` came in with an EC50 of 3800 nM and a pEC50 of 5.42.
For `CCOc1cccc2[nH]cc(C(=O)C(=O)N3CCN(C(=O)c4ccccc4)CC3)c12`, in that order: 0.45 nM and 9.35.
`O=C(C(=O)N1CCN(C(=O)c2ccccc2)CC1)c1c[nH]c2c(Br)ccc(OC(F)(F)F)c12` came in with an EC50 of 42.8 nM and a pEC50 of 7.37.
`O=C(C(=O)N1CCN(C(=O)c2ccccc2)CC1)c1c[nH]c2ccc(F)cc12` had an EC50 of 838 nM and a pEC50 of 6.08.
Turning to `O=C(C(=O)N1CCN(C(=O)c2ccccc2)CC1)c1c[nH]c2ccc(Cl)cc12`, the EC50 came to 395 nM and the pEC50 came to 6.4.
For `O=C(C(=O)N1CCN(C(=O)c2ccccc2)CC1)c1c[nH]c2ccc(Br)cc12`, in that order: 1090 nM and 5.96.
`O=C(C(=O)N1CCN(C(=O)c2ccccc2)CC1)c1c[nH]c2c(Br)ccc(F)c12` displayed an EC50 of 0.13 nM and a pEC50 of 9.89.
For `Cc1ccc2[nH]cc(C(=O)C(=O)N3CCN(C(=O)c4ccccc4)CC3)c2c1`, in that order: 1550 nM and 5.81.
For `O=C(C(=O)N1CCN(C(=O)c2ccccc2)CC1)c1c[nH]c2cc(F)c(Br)c(F)c12`, in that order: 23.1 nM and 7.64.
Molecule `O=C(C(=O)N1CCN(C(=O)c2ccccc2)CC1)c1c[nH]c2c(F)ccc(F)c12` displayed an EC50 of 0.35 nM and a pEC50 of 9.46.
For `CCc1cccc2c(C(=O)C(=O)N3CCN(C(=O)c4ccccc4)CC3)c[nH]c12`, in that order: 24.2 nM and 7.62.
In the case of `N#Cc1cccc2c(C(=O)C(=O)N3CCN(C(=O)c4ccccc4)CC3)c[nH]c12`, the response was half-maximal at 4.9 nM (EC50) and the pEC50 was found to be 8.31.
The molecule `CCCCOc1cccc2c(C(=O)C(=O)N3CCN(C(=O)c4ccccc4)CC3)c[nH]c12` yielded a concentration for a half-maximal effect (EC50) of 0.14 nM and a pEC50 of 9.85.
For `N#Cc1ccc(F)c2c(C(=O)C(=O)N3CCN(C(=O)c4ccccc4)CC3)c[nH]c12`, in that order: 1.9 nM and 8.72.
For `O=C(C(=O)N1CCN(C(=O)c2ccccc2)CC1)c1c[nH]c2cc(F)cc(F)c12`, in that order: 0.42 nM and 9.38.
For `O=C(C(=O)N1CCN(C(=O)c2ccccc2)CC1)c1c[nH]c2c(Br)cccc12`, in that order: 17.4 nM and 7.76.
`Cc1cccc2c(C(=O)C(=O)N3CCN(C(=O)c4ccccc4)CC3)c[nH]c12`: the EC50 was 89.5 nM and the pEC50 is listed as 7.05.
For `O=C(C(=O)N1CCN(C(=O)c2ccccc2)CC1)c1c[nH]c2cccc(O)c12`, in that order: 20100 nM and 4.7.
With `COc1ccc(Br)c2[nH]cc(C(=O)C(=O)N3CCN(C(=O)c4ccccc4)CC3)c12`, a half-maximal response (EC50) required 0.13 nM and the pEC50 was determined as 9.89.
For `Cc1ccc(F)c2c(C(=O)C(=O)N3CCN(C(=O)c4ccccc4)CC3)c[nH]c12`, in that order: 0.56 nM and 9.25.
For `COc1ccc(OC)c2c(C(=O)C(=O)N3CCN(C(=O)c4ccccc4)CC3)c[nH]c12`, in that order: 0.23 nM and 9.64.
For `COc1ccc(C#N)c2[nH]cc(C(=O)C(=O)N3CCN(C(=O)c4ccccc4)CC3)c12`, in that order: 0.06 nM and 10.22.
`O=C(C(=O)N1CCN(C(=O)c2ccccc2)CC1)c1c[nH]c2c(F)cccc12` returned an EC50 of 7.3 nM and a pEC50 of 8.14.
For `Cn1cc(C(=O)C(=O)N2CCN(C(=O)c3ccccc3)CC2)c2ccccc21`, in that order: 265 nM and 6.58.
For `COc1cc2[nH]cc(C(=O)C(=O)N3CCN(C(=O)c4ccccc4)CC3)c2cc1OC`, in that order: 46500 nM and 4.33.
For `O=C(C(=O)N1CCN(C(=O)c2ccccc2)CC1)c1c[nH]c2c(Cl)cccc12`, in that order: 4.4 nM and 8.36.
In turn, `COc1ccc(F)c2c(C(=O)C(=O)N3CCN(C(=O)c4ccccc4)CC3)c[nH]c12` showed an EC50 of 0.06 nM and a pEC50 of 10.22.
For `O=C(C(=O)N1CCN(C(=O)c2ccccc2)CC1)c1c[nH]c2c(Br)cc(F)cc12`, in that order: 73.1 nM and 7.14.
For `COc1cccc2c(C(=O)C(=O)N3CCN(C(=O)c4ccccc4)CC3)c[nH]c12`, in that order: 6.6 nM and 8.18.
For `O=C(C(=O)N1CCN(C(=O)c2ccccc2)CC1)c1c[nH]c2cc(Cl)c(Cl)cc12`, in that order: 500 nM and 6.3.
As for `O=C(C(=O)N1CCN(C(=O)c2ccccc2)CC1)c1c[nH]c2c(OCC(F)(F)F)ccc(F)c12`, the EC50 came out at 0.71 nM and the negative logarithm of the EC50 (pEC50) came to 9.15.
For `O=C(C(=O)N1CCN(C(=O)c2ccccc2)CC1)c1c[nH]c2cccc(Cl)c12`, in that order: 4.3 nM and 8.37.
`COc1cccc2[nH]cc(C(=O)C(=O)N3CCN(C(=O)c4ccccc4)CC3)c12` showed an EC50 of 0.52 nM and a negative-log EC50 (pEC50) of 9.28.
For `O=C(C(=O)N1CCN(C(=O)c2ccccc2)CC1)c1c[nH]c2cc(F)ccc12`, in that order: 21.1 nM and 7.68.
For `O=C(C(=O)N1CCN(C(=O)c2ccccc2)CC1)c1c[nH]c2c(F)ccc(Br)c12`, in that order: 8.2 nM and 8.09.
